Reference: patent publication EP1383722B1, “INHIBITION OF POPCORN POLYMER GROWTH” (BAKER HUGHES INCORPORATED, priority 2001, dated 2002)

Test: Popcorn Polymer Glass Tube Reaction Test Method
Details: total additive 250 ppm, 60°C, 14 to 28 days
Experimental: The Popcorn Polymer Glass Tube Reaction Method allows for the evaluation of many samples at once, and may be described as follows: • 1. Obtain butadiene popcorn polymer "seeds" (in the Examples of this invention the seeds were obtained in 1996 from a BD holding tank). Activate popcorn polymer "seeds" overnight with a 150 watt flood lamp. The "seeds" are firstplaced in a petri dish and covered. Then they are exposed to white light from the lamp for approximately 20 hours. The lamp is positioned 12 inches (30.5 cm) above the dish. • 2. To glass reaction vessels add 1 ml of deionized water. To the glass reaction vessel and water place approximately 0.6200 gms of BD popcorn "seed". Add inhibitor, if any, into the water and seal the reaction vessel with a TEFLON adapter. Completely seal off the adapter by use of a metal adapter plug. Using a gas-tight syringe, inject 15mls of butadiene monomer into the reaction vessel by way of a septum port located at the top of the TEFLON adapter. • 3. Next, place the reaction vessel containing BD popcorn "seed" and butadiene monomer into a block incubator bath which is capable of maintaining a constant temperature of 60°C. Allow the test to run for 14 to 28 days. Remove the reaction vessel from the incubator bath. • 4. Vent the BD out of the vessel by slowly opening the metal adapter plug. Slowly open the reaction vessel and decant the water/BD mixture. Rinse the wet polymer with n-heptane until most of the n-heptane is essentially clear of haze. Blow dry nitrogen into the reaction vessel to further dry the poly-mer. Remove the popcorn polymer carefully with tweezers and spatula and place in a 100 ml beaker. Wash the popcorn polymer material three times with 30 ml aliquots of n-heptane. • 5. Transfer the popcorn polymer sample into a petri dish. Place dish into a vacuum oven. Dry sample at 212°F (100°C) under a 30 mmHg vacuum for 30 minutes. Remove dish and sample from oven. Place dish and popcorn polymer sample in a desiccator. Cool for 1 hour and record the weight of the popcorn polymer. The weight of new polymer growth can be obtained by subtracting the original seed weight from the total popcom polymer weight.

CC1(C)CCCC(C)(C)N1[O] [compound 7, 2,2,6,6-tetramethyl-1-piperidinyloxyl]
%Inhibition (Table II): 50%
Polymer formed mg/15ml (Table II): 550 mg/15ml
%Inhibition (Table III): 83%
Polymer formed mg/15ml (Table III): 80 mg/15ml

CC(C)(C)c1cc(O)ccc1O [compound 8, tert-butyl hydroquinone]
%Inhibition (Table II): 30%
Polymer formed mg/15ml (Table II): 770 mg/15ml

COc1cc(C(C)(C)C)c(O)c(C(C)(C)C)c1 [compound 19, 2,6-di-tert-butyl-4-methoxyphenol]
%Inhibition (Table III): 77%
Polymer formed mg/15ml (Table III): 108 mg/15ml
